# Assay results as given in US20020111274A1, “1-alkyl-3-[1-(substituted phenyl) benzotriazol-6-yl] uracils” (BASF Aktiengesellschaft, priority 2000, published 2002).
# How the values were obtained:
# Set-up in all cases: scale not given here
# [1] = tested on: GLXMAW Soybean, Williams; assay: Postemergence herbicidal evaluation, GLXMAW; assay type: in vivo, Glycine max, (L.) Merr. cv Williams; details: postemergence spray, rated about two-three weeks after treatment
# In short: (§1)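 Visual injury rating ~2–3 wk post-spray; replicate tests averaged. Two-week-old seedlings; foliar spray at 40 psi; 0.006–0.400 kg ai/ha in 80/20 acetone/water + 1.0% methylated seed oil.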
# [2] = tested on: IPOHE Morningglory, Ivyleaf; assay: Postemergence herbicidal evaluation, IPOHE; assay type: in vivo, Ipomoea hederacea, (L.) Jacq.; details: postemergence spray, rated about two-three weeks after treatment
# In short: as §1
# [3] = tested on: ABUTH Velvetleaf; assay: Postemergence herbicidal evaluation, ABUTH; assay type: in vivo, Abutilon theophrasti, Medic.; details: postemergence spray, rated about two-three weeks after treatment
# In short: as §1
# [4] = tested on: GALAP Galium; assay: Postemergence herbicidal evaluation, GALAP; assay type: in vivo, Galium aparine; details: postemergence spray, rated about two-three weeks after treatment
# In short: as §1
# [5] = tested on: SETVI Foxtail, Green; assay: Preemergence herbicidal evaluation, SETVI; assay type: in vivo, Setaria viridis, (L.) Beau; details: preemergence
# In short: (§2)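 First, seed is blended with potting soil and sown over roughly an inch of soil per cup. Next, the surface is sprayed with an aqueous acetone solution delivering about 0.013–0.800 kg/ha. Finally, cups are grown in the greenhouse and rated after 4–5 weeks.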
# [6] = tested on: ABUTH Velvetleaf; assay: Preemergence herbicidal evaluation, ABUTH; assay type: in vivo, Abutilon theophrasti, Medic.; details: preemergence
# In short: as §2
# [7] = tested on: IPOHE Morningglory, Ivyleaf; assay: Preemergence herbicidal evaluation, IPOHE; assay type: in vivo, Ipomoea hederacea, (L.) Jacq.; details: preemergence
# In short: as §2
# [8] = tested on: ECHOG Barnyardgrass; assay: Postemergence herbicidal evaluation, ECHOG; assay type: in vivo, Echinochloa crus-galli, (L.) Beau; details: postemergence spray, rated about two-three weeks after treatment
# In short: as §1
# [9] = tested on: ZEAMX Corn, Field; assay: Postemergence herbicidal evaluation, ZEAMX; assay type: in vivo, Zea mays, L. (Sammel-Bezeichnung); details: postemergence spray, rated about two-three weeks after treatment
# In short: as §1
# [10] = tested on: ORYSAT Rice, Tebonnet; assay: Preemergence herbicidal evaluation, ORYSAT; assay type: in vivo, Oryza sativa, (L.); details: preemergence
# In short: as §2
# [11] = tested on: ZEAMX Corn, Field; assay: Preemergence herbicidal evaluation, ZEAMX; assay type: in vivo, Zea mays, L. (Sammel-Bezeichnung); details: preemergence
# In short: as §2
# [12] = tested on: CASOB Sicklepod; assay: Postemergence herbicidal evaluation, CASOB; assay type: in vivo, Cassia obtusifolia, L.; details: postemergence spray, rated about two-three weeks after treatment
# In short: as §1
compound,measurement,setting,value
Cc1ccccc1-n1nnc2cc(F)c(-n3c(=O)cc(C(F)(F)F)n(C)c3=O)cc21 [Example 20],Postemergence herbicidal rating GLXMAW,[1]; 0.008 kg/ha,3.0
same,Postemergence herbicidal rating GLXMAW,[1]; 0.016 kg/ha,5.5
same,Postemergence herbicidal rating GLXMAW,[1]; 0.032 kg/ha,5.5
same,Postemergence herbicidal rating GLXMAW,[1]; 0.062 kg/ha,5.5
same,Postemergence herbicidal rating IPOHE,[2]; 0.008 kg/ha,1.0
same,Postemergence herbicidal rating IPOHE,[2]; 0.016 kg/ha,4.0
same,Postemergence herbicidal rating IPOHE,[2]; 0.032 kg/ha,4.0
same,Postemergence herbicidal rating IPOHE,[2]; 0.062 kg/ha,9.0
same,Postemergence herbicidal rating ABUTH,[3]; 0.008 kg/ha,9.0
same,Postemergence herbicidal rating ABUTH,[3]; 0.016 kg/ha,9.0
same,Postemergence herbicidal rating ABUTH,[3]; 0.032 kg/ha,9.0
same,Postemergence herbicidal rating ABUTH,[3]; 0.062 kg/ha,9.0
same,Postemergence herbicidal rating GALAP,[4]; 0.008 kg/ha,0.0
same,Postemergence herbicidal rating GALAP,[4]; 0.016 kg/ha,0.0
same,Postemergence herbicidal rating GALAP,[4]; 0.032 kg/ha,2.0
same,Postemergence herbicidal rating GALAP,[4]; 0.062 kg/ha,9.0
same,SETVI herbicidal rating,[5]; rate 0.016 kg/ha,0.0
same,SETVI herbicidal rating,[5]; rate 0.032 kg/ha,8.0
same,SETVI herbicidal rating,[5]; rate 0.062 kg/ha,9.0
same,SETVI herbicidal rating,[5]; rate 0.125 kg/ha,9.0
same,ABUTH herbicidal rating,[6]; rate 0.016 kg/ha,0.0
same,ABUTH herbicidal rating,[6]; rate 0.032 kg/ha,6.5
same,ABUTH herbicidal rating,[6]; rate 0.062 kg/ha,9.0
same,ABUTH herbicidal rating,[6]; rate 0.125 kg/ha,9.0
same,IPOHE herbicidal rating,[7]; rate 0.016 kg/ha,0.0
same,IPOHE herbicidal rating,[7]; rate 0.032 kg/ha,3.0
same,IPOHE herbicidal rating,[7]; rate 0.062 kg/ha,4.5
same,IPOHE herbicidal rating,[7]; rate 0.125 kg/ha,4.5
same,Postemergence herbicidal rating ECHCG,[8]; 0.008 kg/ha,0.0
same,Postemergence herbicidal rating ECHCG,[8]; 0.016 kg/ha,0.0
same,Postemergence herbicidal rating ECHCG,[8]; 0.032 kg/ha,0.0
same,Postemergence herbicidal rating ECHCG,[8]; 0.062 kg/ha,0.0
same,Postemergence herbicidal rating ZEAMX,[9]; 0.008 kg/ha,3.0
same,Postemergence herbicidal rating ZEAMX,[9]; 0.016 kg/ha,3.5
same,Postemergence herbicidal rating ZEAMX,[9]; 0.032 kg/ha,3.5
same,Postemergence herbicidal rating ZEAMX,[9]; 0.062 kg/ha,5.0
same,ORYSAT herbicidal rating,[10]; rate 0.016 kg/ha,0.0
same,ORYSAT herbicidal rating,[10]; rate 0.032 kg/ha,0.0
same,ORYSAT herbicidal rating,[10]; rate 0.062 kg/ha,1.0
same,ORYSAT herbicidal rating,[10]; rate 0.125 kg/ha,3.0
same,ZEAMX herbicidal rating,[11]; rate 0.016 kg/ha,0.0
same,ZEAMX herbicidal rating,[11]; rate 0.032 kg/ha,1.0
same,ZEAMX herbicidal rating,[11]; rate 0.062 kg/ha,4.5
same,ZEAMX herbicidal rating,[11]; rate 0.125 kg/ha,6.0
same,Postemergence herbicidal rating CASOB,[12]; 0.008 kg/ha,0.0
same,Postemergence herbicidal rating CASOB,[12]; 0.016 kg/ha,0.0
same,Postemergence herbicidal rating CASOB,[12]; 0.032 kg/ha,0.0
same,Postemergence herbicidal rating CASOB,[12]; 0.062 kg/ha,1.0
